According to patent US20160015064A1, “COMPOUNDS, COMPOSITIONS, AND METHODS FOR MODULATING SWEET TASTE” (CHROMOCELL CORPORATION, priority 2013, published 2016):

How the values were obtained:
flavor = conditions: DuBois, et al., J. Med. Chem., 1981; cited from earlier work
[1] = tested on: perception of the sweet taste of an aqueous solution of sweetener; experiment: Two-alternative forced choice sip and spit method (2AFC); assay type: in vivo, humans
Description: The effect of the test compounds on the perception of the sweet taste of an aqueous solution of sweetener in humans was evaluated using a two-alternative forced choice “sip and spit” method (2AFC).
(§1) The aqueous sweetener solutions were prepared by adding, fructose, sucrose or glucose (by weight), to water to achieve the desired concentration.
Compounds were first prepared as a 500-fold concentrated stock solution in 100% ethanol. These concentrated stocks were then added to the aqueous sweetener solutions to result in a final ethanol concentration of 0.2%. The control (positive and negative) samples were also normalized to 0.2% ethanol. This level of ethanol was not seen to contribute any perceived sweetness.
The 2AFC test used for compound evaluation was a blind and randomized test where taste panelists (n=15) evaluate a pair of sweetener solutions at a time—one sample contains aqueous sweetener solution plus compound (i.e. test) while the other contains aqueous sweetener solution at higher concentration without compound (i.e. positive control). Each test sample was compared against a positive control. For example, if the test sample contained 1× sweetener concentration with compound (e.g. 5% sucrose with compound), the positive control sample contained a 1.1× sweetener concentration (e.g. 5.5% sucrose without compound).
Panelists were instructed not to eat or drink (except water) for at least 1 h before the test. During the test, panelists were instructed to sip each sample, swirl it around their mouth and then expectorate. After tasting each sample in the pair, panelists were instructed to record the sample that is “sweeter” in taste. Panelists cleansed their palates by rinsing with water, eating a cracker and waiting for an interval of about 5 minutes. Each pair was tasted twice. All samples were tasted at ambient temperatures. Data were analyzed using binomial probabilities.
Approximate levels of sweetness enhancement in column 5 of Table 2 were calculated as follows:
Approximate levels of sweetness enhancement=Sweetener concentration of positive control surpassed by the test sample, divided by sweetener concentration for compound-containing sample (e.g. 1.15×=5.75% sucrose/5% sucrose).

[2] = tested on: perception of the sweet taste of an aqueous solution of sweetener; experiment: Ranking sip and spit test of sweetness perception (R index); assay type: in vivo, humans; conditions: compound 10 ppm, vs negative control
Description: The effect of the test compounds on the perception of the sweet taste of an aqueous solution of sweetener in humans was evaluated using a ranking “sip and spit” method.
as §1
Compounds were first prepared as a 500-fold concentrated stock solution in 100% ethanol. These concentrated stocks were then added to the aqueous sweetener solutions to result in a final ethanol concentration of 0.2%. The control (positive and negative) samples were also normalized to 0.2% ethanol.
In the ranking test used for compound evaluation, taste panelists (n=15), rank samples in increasing order of sweetness. One set, comprising of 6 samples, was presented to each panelists at a given time and are asked to rank them in order of increasing sweetness.
Panelists were instructed not to eat or drink (except water) for at least 1 h before the test. During the test, panelists were instructed to sip each sample, swirl it around their mouth and then expectorate. After tasting each set, panelists were instructed to rank the 6 samples within the set from least sweet to most sweet. Where rank 1—is lowest in sweetness and rank 6—is highest in sweetness. Panelists cleansed their palates by rinsing with water, eating a cracker and waiting for an interval of 10 minutes. All samples were tasted at ambient temperatures. Each sample was tasted twice.
R index analysis was utilized to determine the degree of difference between a test and control sample. It indicates the level of discrimination between two samples. […] A positive control sample was used to assess the ability of the panelists to accurately discriminate sweetness perception differences from the negative control.

[3] = tested on: perception of the sweet taste in an aqueous environment; experiment: Trained descriptive analysis (DA) panel, sweet attribute; assay type: in vivo, humans; conditions: for Compound effects beyond the additive effect of inherent sweetness: 4% fructose and 8% sucrose
Description: The effect of the test compounds on the perception of the sweet taste in an aqueous environment, in the absence or presence of carbohydrate sweeteners, was evaluated using a descriptive analysis methodology with a group of trained panelists, as follows.
Candidate panelists were recruited, with prescreening and personal interviews, and were assessed for their ability to detect, recognize and differentiate basic taste attributes or mixtures thereof as part of a standardized acuity test. These candidate panelists were also assessed for their innate ability to identify flavors, and to rank on intensity scales. Other senses such as smell and vision were also included as part of the assessment. Candidates also were screened for their ability to use the language to describe and articulate ideas.
Selected candidates proceeded to training as a group in three phases: (1) Lexicon development, (2) Concept alignment, and (3) Scaling descriptors. During lexicon development, panelists evaluated products appropriate for use in the study to generate and align on terms describing the flavor, taste, aromatic, trigeminal, and temporal attributes. During concept alignment, the panel evaluated the products mentioned above to clarify and confirm the attributes that were generated during lexicon development using reference standards that appropriately define each attribute; these are either physical references (e.g. sucrose solutions) or verbal descriptions (e.g. overall flavor). Product terms and concepts were validated during this portion of the study.
In the last phase, scaling descriptors, the panel participated in a series of exercises focused on ordering and ranking samples according to relative attribute intensity, measuring attribute intensity using a defined length of line scale. Whenever possible, different levels or concentration of references were used as anchors to facilitate use of the scale. Panelists were provided with blinded references at this stage to evaluate their understanding and perception of the scale.
The panel used in this example was trained to reference sweet attributes in an absolute manner, such that a particular concentration of sweetener is always measured by the panelists at the same point using a 15 cm line scale where each cm represents a 1% increase in sucrose to cover the range of 0% to 15% sucrose. For the rest of the attributes, the panel was trained using a hybrid approach between descriptive analysis methods (e.g. quantitative descriptive analysis, the sensory spectrum, etc.) well-known to those skilled in the art.
The trained panel was then used for a descriptive analysis assessment for Compounds 1, 2 and 3 in aqueous solutions at pH 3 and pH 7. Each of the three compounds was tested at 35 ppm in sucrose and fructose sweeteners. In addition, Compounds 1, 2 and 3 were also examined in water at pH 3 and pH 7 to assess for any inherent sweetness.
The aqueous sweetener solutions were prepared by adding, fructose or sucrose (by weight), to water to achieve the desired concentration. Aqueous sucrose solutions at pH 3 were buffered using a final concentration of 0.096% Citric Acid plus 0.036% Sodium Citrate while aqueous fructose solutions at pH 3 were buffered using a final concentration of 0.06% Citric Acid and 0.0225% Sodium Citrate.
Compounds were first prepared as a […] concentrated stock solution in 100% ethanol. These concentrated stocks were then added to the aqueous sweetener solutions to result in a final ethanol concentration of 0.2%. In addition to compounds, a solubilizing agent at a final concentration of 0.02% was added to the aqueous sweetener solutions. Control samples were also balanced with 0.2% ethanol and in certain cases 0.02% solubilizing agent.
Both control (aqueous sweetener solutions without compound) and variant (aqueous sweetener solutions with compound) samples were blinded and randomized (by sweetener and pH blocks). […]

[4] = 4% fructose, pH 3, 35 ppm compound plus solubilizing agent
[5] = 4% fructose, pH 7, 35 ppm compound plus solubilizing agent
[6] = 8% sucrose, pH 3, 35 ppm compound plus solubilizing agent
[7] = 8% sucrose, pH 7, 35 ppm compound plus solubilizing agent

In the case of COc1ccc(C2CC(=O)c3c(O)cccc3O2)cc1O (racemic) [Compound 1, 5-hydroxy-2-(3-hydroxy-4-methoxyphenyl)chroman-4-one], the “Reported flavor (bitter)” value (flavor) is given as “bitter flavor in a significant portion of tasters”, the “Reported flavor (sweet)” value (flavor) is given as “sweet flavor” and the “Fold increase in perceived sweetness” value ([1]; test sample 4% fructose, compound 25 ppm with positive 2AFC) is given as greater than 1.20X. The “Fold increase in perceived sweetness” value ([1]; test sample 5% sucrose, compound 15 ppm with positive 2AFC, positive control surpassed / test sweetener concentration) was greater than 1.15X, the “Fold increase in perceived sweetness” value ([1]; test sample 6.5% glucose, compound 10, 25 ppm with positive 2AFC) was greater than 1.15X and the “R Index Score” value ([2]; 4% fructose test sample) was 90. The “R Index Score” value ([2]; 5% sucrose test sample, significant at R index ≧60) was 93, the “DA Panel Average Sweetness Intensity Score (on 15 cm scale)” value [3, 4] was 6.94 and the “Fold enhancement of sweetness perception as compared to control sweetener solution” value (shortened to “Fold enhancement of sweetness perception”) [3, 4] was 1.38X. For the same compound, the “DA Panel Average Sweetness Intensity Score (on 15 cm scale)” value [3, 5] was 7.80, the “Fold enhancement of sweetness perception” value [3, 5] was 1.78X and the “DA Panel Average Sweetness Intensity Score (on 15 cm scale)” value [3, 6] was 9.31. The “Fold enhancement of sweetness perception” value [3, 6] was 1.29X, the “DA Panel Average Sweetness Intensity Score (on 15 cm scale)” value [3, 7] was 9.97 and the “Fold enhancement of sweetness perception” value [3, 7] was 1.33X. The “DA Panel Average Sweetness Intensity Score (on 15 cm scale)” value ([3]; citric acid-citrate solution pH 3, no sweetener, 35 ppm compound plus solubilizing agent) was 1.14, the “Perceived inherent sweetness compared to solubilizing agent alone” value ([3]; citric acid-citrate solution pH 3, 35 ppm compound plus solubilizing agent) was “do not show further significant increase in perceived inherent sweetness” and the “Compound effects beyond the additive effect of inherent sweetness” value ([3]; pH 3, 35 ppm) was “super-additive effects”. For the same compound, the “Perceived sweetness vs control sweetener solutions (FIG. 2)” value ([3]; pH 3, fructose and sucrose, 35 ppm, ** p<0.01) was “significant increase in perceived sweetness”, the “Compound effects beyond the additive effect of inherent sweetness” value ([3]; pH 7, 35 ppm) was “super-additive effects” and the “Perceived sweetness vs control sweetener solutions (FIG. 1)” value ([3]; pH 7, fructose and sucrose, 35 ppm, ** p<0.01) was “significant increase in perceived sweetness”. For the same compound, the “DA Panel Average Sweetness Intensity Score (on 15 cm scale)” value ([3]; water pH 7, no sweetener, 35 ppm compound plus solubilizing agent, 1 cm = 1% sucrose) was 1.57 and the “Perceived sweetness compared to solubilizing agent alone (inherent sweetness)” value ([3]; water pH 7, 35 ppm compound plus solubilizing agent) was “further increase in perceived sweetness”.
